The source of these data is patent US11524966B1 (Valo Early Discovery, Inc., priority 2017, dated 2022).

The target in this assay is T1, USP28 (USP28-5(1-1077)-TEV-6*His; LifeSensors) (Homo sapiens, UniProt Q96RU2).
T1 construct: construct USP28 (USP28-5(1-1077)-TEV-6*His; LifeSensors); TEV cleavage site (C); 6xHis (C); purchased LifeSensors
T1 sequence (Q96RU2 1-1077): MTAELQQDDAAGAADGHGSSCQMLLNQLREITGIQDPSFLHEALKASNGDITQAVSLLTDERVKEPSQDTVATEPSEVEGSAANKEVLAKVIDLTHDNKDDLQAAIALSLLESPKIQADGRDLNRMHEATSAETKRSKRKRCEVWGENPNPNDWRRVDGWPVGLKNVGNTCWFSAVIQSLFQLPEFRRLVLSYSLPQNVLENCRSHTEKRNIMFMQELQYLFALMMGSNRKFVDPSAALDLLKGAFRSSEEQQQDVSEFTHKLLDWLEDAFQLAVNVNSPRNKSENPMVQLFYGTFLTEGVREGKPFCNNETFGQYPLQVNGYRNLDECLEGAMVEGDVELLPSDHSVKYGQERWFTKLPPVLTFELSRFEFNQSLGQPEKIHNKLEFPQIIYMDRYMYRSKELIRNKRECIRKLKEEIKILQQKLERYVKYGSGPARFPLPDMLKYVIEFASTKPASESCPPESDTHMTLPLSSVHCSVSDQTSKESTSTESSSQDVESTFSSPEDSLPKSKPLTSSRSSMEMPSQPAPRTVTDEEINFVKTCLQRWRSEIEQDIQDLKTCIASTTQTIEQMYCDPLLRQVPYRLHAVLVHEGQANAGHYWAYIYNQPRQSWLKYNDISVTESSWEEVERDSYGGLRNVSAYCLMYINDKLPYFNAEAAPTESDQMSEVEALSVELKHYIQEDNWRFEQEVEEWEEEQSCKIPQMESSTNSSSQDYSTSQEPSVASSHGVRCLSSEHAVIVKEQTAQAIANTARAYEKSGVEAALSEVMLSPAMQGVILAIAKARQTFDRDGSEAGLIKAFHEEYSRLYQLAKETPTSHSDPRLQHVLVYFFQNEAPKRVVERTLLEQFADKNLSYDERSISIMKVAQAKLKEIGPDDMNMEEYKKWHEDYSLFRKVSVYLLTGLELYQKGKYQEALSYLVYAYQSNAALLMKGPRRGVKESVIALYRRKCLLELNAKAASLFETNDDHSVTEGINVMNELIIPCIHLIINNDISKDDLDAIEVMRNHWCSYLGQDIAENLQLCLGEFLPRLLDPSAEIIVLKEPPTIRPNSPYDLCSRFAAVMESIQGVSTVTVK
The experiment in a line: Ubiquitin-Rhodamine 110 Assay for USP28 Activity, Example A-1(b). Conditions: Ub-Rh110 assay, Example A-1(b). It is filed as biochemical. An outline of the steps:
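Single-point screening used 10 μM compound with 90 min room-temperature incubation; follow-up dose-responses (25 μM top, 3-fold) used 75 pM USP28 1-1077 construct, 30 min compound preincubation, 25 nM Ub-Rh110, 20 min reaction, citric acid quench. Rh110 fluorescence normalised to no-enzyme and DMSO controls; IC50 from 4-parameter logistic fit.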
As for `Cc1ccc2c(N)c(C(=O)N[C@H]3COc4cc(N5CCC[C@](N)(C(F)(F)F)C5)ccc4C3)sc2n1` (single isomer, unassigned) [Example 3-4], the “USP28 A-1(b) IC50 range” value is reported as “+++ (0.05-0.2 μM)”.

Regarding `COc1nc2sc(C(=O)N[C@H]3COc4cc(N5CCNCC5)ccc4C3)c(N)c2cc1F` [Example 2-16, (R)-3-amino-5-fluoro-6-methoxy-N-(7-(piperazin-1-yl)chroman-3-yl)thieno[2,3-b]pyridine-2-carboxamide], the “USP28 A-1(b) IC50 range” value is “++ (0.2-2 μM)”.

Regarding `Cc1cc(C)c2c(N)c(C(=O)N[C@H]3COc4cc(N5CC6CC(C5)N6)ccc4C3)sc2n1` [Example 2-18, N-((3R)-7-(3,6-diazabicyclo[3.1.1]heptan-3-yl)chroman-3-yl)-3-amino-4,6-dimethylthieno[2,3-b]pyridine-2-carboxamide], the “USP28 A-1(b) IC50 range” value was “+++ (0.05-0.2 μM)”.

Regarding `O=C(N[C@H]1COc2cc(N3CC4CCC(C3)N4)ccc2C1)c1cnc2c(c1)C1(CCN2)CC1` [Example 2-24, N-((3R)-7-(3,8-diazabicyclo[3.2.1]octan-3-yl)chroman-3-yl)-2′,3′-dihydro-1′H-spiro[cyclopropane-1,4′-[1,8]naphthyridine]-6′-carboxamide], the “USP28 A-1(b) IC50 range” value is on record as “+ (>2 μM)”.

Take `Cc1nc2sc(C(=O)N[C@H]3COc4cc(N5CC6CNCC(C5)C6(F)F)ccc4C3)c(N)c2s1` [Example 2-28, 6-amino-N-((3R)-7-(9,9-difluoro-3,7-diazabicyclo[3.3.1]nonan-3-yl)chroman-3-yl)-2-methylthieno[2,3-d]thiazole-5-carboxamide]: the “USP28 A-1(b) IC50 range” value is “+++ (0.05-0.2 μM)”.

Take `Cc1ccc2c(N)c(C(=O)N[C@H]3COc4cc(N5CCNCC5)c(F)cc4C3)sc2n1` [Example 1-35, (R)-3-amino-N-(6-fluoro-7-(piperazin-1-yl)chroman-3-yl)-6-methylthieno[2,3-b]pyridine-2-carboxamide]: the “USP28 A-1(b) IC50 range” value is “+++ (0.05-0.2 μM)”.

Turning to `Cc1ccc2c(N)c(C(=O)N[C@H]3COc4cc(N5CCC[C@@](N)(C(F)(F)F)C5)ccc4C3)sc2n1` (single isomer, unassigned) [Example 3-3], the “USP28 A-1(b) IC50 range” value is given as “++++ (0.001-0.05 μM)”.

For the compound `Cc1ccc2c(N)c(C(=O)N[C@H]3COc4cc(N5CCNCC56COC6)ccc4C3)sc2n1` [Example 2-10], the “USP28 A-1(b) IC50 range” value is “+++ (0.05-0.2 μM)”.

Consider `Cc1ccc2c(N)c(C(=O)N[C@H]3COc4c(ccc(N5CCNCC5)c4F)C3)sc2n1` [Example 1-33, (R)-3-amino-N-(8-fluoro-7-(piperazin-1-yl)chroman-3-yl)-6-methylthieno[2,3-b]pyridine-2-carboxamide], for which the “USP28 A-1(b) IC50 range” value is reported as “+++ (0.05-0.2 μM)”.

For the compound `Cc1ccc2c(N)c(C(=O)N[C@H]3COc4cc(N5CCN[C@@H](C)[C@@H]5C)ccc4C3)sc2n1` (single isomer, unassigned) [Example 1-13], the “USP28 A-1(b) IC50 range” value is “++ (0.2-2 μM)”.

As to `Cc1cnc2c(N)c(C(=O)N[C@H]3CCc4c(ccc(N5CCNCC5)c4C)C3)sc2n1` (single isomer, unassigned) [Example 2-36], the “USP28 A-1(b) IC50 range” value is listed as “+ (>2 μM)”.

Regarding `Cc1ccc2c(N)c(C(=O)N[C@H]3COc4cc(N5CCNCC5)ccc4C3)sc2n1` (single isomer, unassigned) [Example 1-1], the “USP28 A-1(b) IC50 range” value is reported as “+++ (0.05-0.2 μM)”.

Consider `Cc1cnc2c(N)c(C(=O)N[C@H]3CCc4cc(N5CCNCC5)c(C)cc4C3)sc2n1` (single isomer, unassigned) [Example 2-34], for which the “USP28 A-1(b) IC50 range” value is recorded as “++ (0.2-2 μM)”.

With `Cc1cc(C)c2c(N)c(C(=O)N[C@H]3COc4cc(N5CC6CNCC(C5)C6(F)F)ccc4C3)sc2n1` [Example 2-19, 3-amino-N-((3R)-7-(9,9-difluoro-3,7-diazabicyclo[3.3.1]nonan-3-yl)chroman-3-yl)-4,6-dimethylthieno[2,3-b]pyridine-2-carboxamide], the “USP28 A-1(b) IC50 range” value was “++++ (0.001-0.05 μM)”.

Turning to `Cc1cc(C)c2c(N)c(C(=O)N[C@H]3COc4cc(N5CC6CNCC(C5)O6)ccc4C3)sc2n1` [Example 2-20, N-((3R)-7-(9-oxa-3,7-diazabicyclo[3.3.1]nonan-3-yl)chroman-3-yl)-3-amino-4,6-dimethylthieno[2,3-b]pyridine-2-carboxamide], the “USP28 A-1(b) IC50 range” value is given as “+++ (0.05-0.2 μM)”.

For `Cc1cc(C(F)(F)F)c2c(N)c(C(=O)N[C@H]3COc4cc(N5CC6CNCC(C5)C6(F)F)ccc4C3)sc2n1` [Example 2-22, 3-amino-N-((3R)-7-(9,9-difluoro-3,7-diazabicyclo[3.3.1]nonan-3-yl)chroman-3-yl)-6-methyl-4-(trifluoromethyl)thieno[2,3-b]pyridine-2-carboxamide], the “USP28 A-1(b) IC50 range” value is “++++ (0.001-0.05 μM)”.

Consider `Cc1ccc2c(N)c(C(=O)N[C@@H]3COc4cc(N5CCN[C@H](C)[C@@H]5C)ccc4C3)sc2n1` (single isomer, unassigned) [Example 1-10], for which the “USP28 A-1(b) IC50 range” value is reported as “++ (0.2-2 μM)”.

With `Cc1ccc2c(N)c(C(=O)N[C@@H]3COc4cc(N5CC6CCCC(C5)N6)ccc4C3)sc2n1` (single isomer, unassigned) [Example 1-6], the “USP28 A-1(b) IC50 range” value is recorded as “++ (0.2-2 μM)”.

For the compound `Nc1c(C(=O)N[C@@H]2COc3cc(N4CC5CCC(C4)N5)ccc3C2)sc2ncc(F)cc12` (single isomer, unassigned) [Example 1-18], the “USP28 A-1(b) IC50 range” value is on record as “+ (>2 μM)”.

As to `Nc1c(C(=O)N[C@H]2COc3cc(N4CC5CCC(C4)N5)ccc3C2)sc2ncc(F)cc12` (single isomer, unassigned) [Example 1-17], the “USP28 A-1(b) IC50 range” value is “++ (0.2-2 μM)”.

As for `Cc1cnc2c(N)c(C(=O)N[C@H]3COc4cc(N5CC6CNCC(C5)O6)ccc4C3)sc2n1` [Example 2-13, N-((3R)-7-(9-oxa-3,7-diazabicyclo[3.3.1]nonan-3-yl)chroman-3-yl)-7-amino-3-methylthieno[2,3-b]pyrazine-6-carboxamide], the “USP28 A-1(b) IC50 range” value is reported as “++ (0.2-2 μM)”.

Turning to `Cc1ccc2c(N)c(C(=O)N[C@@H]3COc4cc(N5CC6CCC(C5)N6)ccc4C3)sc2n1` (single isomer, unassigned) [Example 1-4], the “USP28 A-1(b) IC50 range” value is recorded as “++ (0.2-2 μM)”.

On to `Cc1cnc2c(N)c(C(=O)N[C@H]3COc4cc(N5CC6CC(C5)N6)ccc4C3)sc2n1` [Example 2-11, N-((3R)-7-(3,6-diazabicyclo[3.1.1]heptan-3-yl)chroman-3-yl)-7-amino-3-methylthieno[2,3-b]pyrazine-6-carboxamide], for which the “USP28 A-1(b) IC50 range” value is listed as “++ (0.2-2 μM)”.

For the compound `Cc1ccc2c(N)c(C(=O)N[C@@H]3COc4cc(N5CC6CC(C5)N6)cc(F)c4C3)sc2n1` (single isomer, unassigned) [Example 1-41], the “USP28 A-1(b) IC50 range” value is listed as “+++ (0.05-0.2 μM)”.

In the case of `Cc1ccc2c(N)c(C(=O)N[C@@H]3COc4cc(N5CCN[C@H](C)[C@H]5C)ccc4C3)sc2n1` (single isomer, unassigned) [Example 1-12], the “USP28 A-1(b) IC50 range” value is reported as “++++ (0.001-0.05 μM)”.

For the compound `Cc1ccc2c(N)c(C(=O)N[C@H]3COc4cc(N5CCNC[C@@H]5C)ccc4C3)sc2n1` [Example 2-4, 3-amino-6-methyl-N-((R)-7-((S)-2-methylpiperazin-1-yl)chroman-3-yl)thieno[2,3-b]pyridine-2-carboxamide], the “USP28 A-1(b) IC50 range” value is on record as “++++ (0.001-0.05 μM)”.

On to `Cc1ccc2c(N)c(C(=O)N[C@H]3COc4cc(N5CCN[C@@H](C)C5)ccc4C3)sc2n1` [Example 2-8, 3-amino-6-methyl-N-((R)-7-((S)-3-methylpiperazin-1-yl)chroman-3-yl)thieno[2,3-b]pyridine-2-carboxamide], for which the “USP28 A-1(b) IC50 range” value is “++ (0.2-2 μM)”.

For `Cc1nc2sc(C(=O)N[C@H]3COc4cc(N5CCNCC5)ccc4C3)c(N)c2s1` [Example 1-25, (R)-6-amino-2-methyl-N-(7-(piperazin-1-yl)chroman-3-yl)thieno[2,3-d]thiazole-5-carboxamide], the “USP28 A-1(b) IC50 range” value is listed as “++ (0.2-2 μM)”.

With `Cc1cc(C(F)(F)F)c2c(N)c(C(=O)N[C@H]3COc4cc(N5CC6CC(C5)N6)ccc4C3)sc2n1` [Example 2-21], the “USP28 A-1(b) IC50 range” value is listed as “++ (0.2-2 μM)”.
